From patent publication US6518253B1, “Treatment of viral infections using the L-isomer of ribavirin” (priority 1999, dated 2003)
Read-outs that look alike come from different tables or passages of the source.

Assays:
[1] = Cytotoxicity assay, influenza A test; assay type: cell-based; conditions: cells infected with Influenza A (cell line not given); cells of the Influenza A test; read-out: Cytotoxicity (CC50) INFL.A
Protocol: (§1) In vitro testing for direct antiviral activity of Levovirin™ and Ribavirin against influenza A and B, parainfluenza 1 and 2, and respiratory syncytial virus were performed as described in Huffinan, J. H. et al. Antiviral Chem. and Chemother. 1997, 8: 75-83 and Barnard, D. L. et al. Antiviral Chem. and Chemother 1997, 8: 223-233. Anti-human immunodeficiency virus activity was assessed by the National Cancer Institute using a procedure designed to detect agents acting at any stage of the virus reproductive cycle [Weislow, O. W. et al., J. Natl. Cancer Inst. 1989, 81: 577-586]. Anti-hepatitis B (HBV) activity was monitored by using an assay as described by Marion et al., Hepatology 1987, 7: 724-731. Anti-HIV activity and cytotoxicity for Ribavirin was determined from previous data [McCormick, J. B., Lancet, 1998, II: 1367-1369.

[2] = tested on: Influenza (INFL) B; assay: microbe, parasite or virus in culture; assay type: cell-based; conditions: read-out: Dir.Antiviral activity (EC50) INFL.B
[3] = Cytotoxicity assay, influenza B test; assay type: cell-based; conditions: cells infected with Influenza B (cell line not given); cells of the Influenza B test; read-out: Cytotoxicity (CC50) INFL.B
Protocol: as §1

[4] = rat, in vivo, po, 180 mg/kg
[5] = tested on: Concanavalin A Induced Hepatitis; assay: Concanavalin A induced hepatitis, serum ALT; conditions: BALB/c mice, single i.p. dose 20 μg (1 mg/kg) 1 hr prior to i.v. 0.3 mg Con A; serum after 24 hr; PBS control about 1900 U/ml
[6] = tested on: SEB stimulated T cell expression of the TH1 cytokines IL-2, IFN-γ, and TNF-α; assay type: cell-based, human
[7] = tested on: cells infected with Influenza A; assay: Cytotoxicity assay, influenza A test; assay type: cell-based; conditions: cells of the Influenza A test; read-out: Cytotoxicity (CC50) INFL.A
Protocol: as §1

[8] = tested on: Parainfluenza (PARA) 3; assay type: cell-based, Parainfluenza 3; conditions: read-out: Dir.Antiviral activity (EC50) PARA 3
[9] = tested on: cells infected with HIV; conditions: cells of the HIV test; Ribavirin value from previous data (McCormick, Lancet); read-out: Cytotoxicity (CC50) HIV; cited from earlier work
[10] = tested on: cells infected with RSV
[11] = tested on: cells infected with Influenza B; assay: Cytotoxicity assay, influenza B test; assay type: cell-based; conditions: cells of the Influenza B test; read-out: Cytotoxicity (CC50) INFL.B
Protocol: as §1

[12] = tested on: cells infected with HBV
[13] = tested on: Influenza (INFL) A; assay type: cell-based; conditions: read-out: Dir.Antiviral activity (EC50) INFL.A
[14] = Four-week oral toxicity in rats; conditions: oral administration, 180 mg/kg over four weeks
[15] = tested on: respiratory syncytial virus (RSV); assay type: cell-based; conditions: read-out: Dir.Antiviral activity (EC50) RSV
[16] = tested on: cells infected with Parainfluenza 3
[17] = tested on: cells infected with Parainfluenza 1
[18] = tested on: Hepatitis B (HBV); assay type: cell-based; conditions: read-out: Dir.Antiviral activity (EC50) HBV
[19] = tested on: Parainfluenza (PARA) 1; assay type: cell-based, Parainfluenza 1; conditions: read-out: Dir.Antiviral activity (EC50) PARA 1

In the case of `NC(=O)c1ncn([C@H]2O[C@@H](CO)[C@H](O)[C@@H]2O)n1` [Levovirin™, 1-(β-L-ribofuranosyl)-1,2,4-triazole-3-carboxamide], the CC50 [1] is reported as over 200 µM, the EC50 ([2]; Influenza B virus) is reported as over 200 µM and the CC50 [3] is reported as over 200 µM. For the same compound, the “Clinical pathology (hemolytic anemia, leukopenia)” value [4] was “did not produce any observable clinical pathology”, the “Con A induced serum ALT level” value [5] was 954 U/ml and the “IFN-γ, mean percentage of activated control” value [6] was 122 ± 3 percentage of activated control. The “IL-2, mean percentage of activated control” value [6] was 131 ± 12 percentage of activated control and the “TNF-α, mean percentage of activated control” value [6] was 144 ± 7 percentage of activated control.

For “1-(5-Deoxy-β-D-ribo-furanosyl)-1,2,4-triazole-3-carboxamide [Ribavirin]”, the CC50 [7] is listed as 56 µM, the EC50 [8] is listed as 4 µM and the CC50 [9] is listed as over 40 µM. For the same compound, the EC50 ([2]; Influenza B) was 1.9 µM, the CC50 [10] was 100 µM and the CC50 [11] was over 100 µM. For the same compound, the CC50 [12] was 53 µM, the EC50 [13] was 6.1 µM and the “Clinical pathology (hemolytic anemia, leukopenia)” value [14] was “produced significant hemolytic anemia and leukopenia”. The EC50 [15] was 5 µM, the CC50 [16] was 480 µM and the “Con A induced serum ALT level” value [5] was 969 U/ml. The CC50 [17] was over 1000 µM, the “IFN-γ, mean percentage of activated control” value [6] was 131 ± 6 percentage of activated control and the “IL-2, mean percentage of activated control” value [6] was 143 ± 18 percentage of activated control. For the same compound, the “TNF-α, mean percentage of activated control” value [6] was 124 ± 4 percentage of activated control, the EC50 [18] was over 100 µM and the EC50 [19] was 40 µM.
